According to ChEMBL document CHEMBL1150823, “Two bioactive saponins from Albizia subdimidiata from the Suriname rainforest” (J Nat Prod, 2001):
In brackets after ≈: the same amount, converted by molar mass.

Assays:
Saccharomyces cerevisiae [1] = test: DNA damaging activity against Saccharomyces cerevisiae 1138 assessed as concentration required to produce 12 mm zone of inhibition; format: functional
Saccharomyces cerevisiae [2] = test: DNA damaging activity against Saccharomyces cerevisiae 1353 assessed as concentration required to produce 12 mm zone of inhibition; format: functional
A2780 = test: Cytotoxicity against human A2780 cells; format: functional, cell-based
Saccharomyces cerevisiae [3] = test: DNA damaging activity against Saccharomyces cerevisiae Sc7 assessed as concentration required to produce 12 mm zone of inhibition; format: functional
Saccharomyces cerevisiae [4] = test: DNA damaging activity against Saccharomyces cerevisiae 1140 assessed as concentration required to produce 12 mm zone of inhibition; format: functional

For `CC(=O)N[C@H]1[C@H](O[C@H]2CC[C@]3(C)[C@H]4CC=C5[C@@H]6CC(C)(C)CC[C@]6(C(=O)O)CC[C@@]5(C)[C@]4(C)CC[C@H]3C2(C)C)O[C@H](CO[C@@H]2OC[C@H](O)[C@H](O)[C@H]2O[C@@H]2OC[C@@H](O)[C@H](O)[C@H]2O)[C@@H](O)[C@@H]1O` [ALBIZIATRIOSIDE A], which Activity (Saccharomyces cerevisiae [1]) is on record?
The Activity was 30 µg/mL.

What about the Activity (Saccharomyces cerevisiae [2]) of the same molecule?
Its Activity is 35 µg/mL.

And the IC50 (A2780)?
Its IC50 is 0.9 µg/mL (≈ 0.974 µM).

What about the Activity (Saccharomyces cerevisiae [3]) of the same molecule?
The Activity was 30 µg/mL.

And the Activity (Saccharomyces cerevisiae [4])?
The Activity was 35 µg/mL.

For `CC(=O)N[C@H]1[C@H](O[C@H]2CC[C@]3(C)[C@H]4CC=C5[C@@H]6CC(C)(C)CC[C@]6(C(=O)O)CC[C@@]5(C)[C@]4(C)CC[C@H]3C2(C)C)O[C@H](CO[C@@H]2OC[C@H](O)[C@H](O)[C@H]2O[C@@H]2OC[C@H](O)[C@H](O)[C@H]2O)[C@@H](O)[C@@H]1O`, which Activity (Saccharomyces cerevisiae [1]) is on record?
The Activity was 25 µg/mL.

What about the Activity (Saccharomyces cerevisiae [2]) of the same molecule?
The Activity was 30 µg/mL.

And the IC50 (A2780)?
Its IC50 is 0.8 µg/mL (≈ 0.866 µM).

What about the Activity (Saccharomyces cerevisiae [3]) of the same molecule?
The Activity was 45 µg/mL.

And the Activity (Saccharomyces cerevisiae [4])?
Its Activity is 40 µg/mL.
